From US10029986B2, “Alkynyl pyridine-substituted amide compound and pesticide” (NISSAN CHEMICAL INDUSTRIES, LTD., priority 2014, dated 2018)

How the values were obtained:
[1] = test system: Erysiphe polygoni (synonym: Erysiphe betae); assay: Test on the preventive effect against cucumber powdery mildew; format: in vivo; conditions: 216 h, test solution A 500 ppm, 5 ml per pot sprayed, cucumber cotyledon stage, 9 days after inoculation
Outline: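 Cucumber (Sagami Hanjiro) at cotyledon stage sprayed with 500 ppm compound (diluted from 20 wt% emulsifiable concentrate), air-dried, then inoculated with Erysiphe polygoni conidia. Kept 9 days at 20 °C in greenhouse; lesion area ratio scored in duplicate, control value = [1−(treated/untreated lesion ratio)]×100.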

Sclerotinia sclerotiorum = assay: Test on the preventive effect against cucumber stem rot; format: in vivo; conditions: 48 h, test solution A 500 ppm, 5 ml per pot, agar block inoculation, 2 days at 20° C.
Outline: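 Cucumber (Sagami Hanjiro) at cotyledon stage sprayed with 5 ml/pot of 500 ppm compound from a 20 wt % emulsifiable concentrate, air-dried, then inoculated on seed leaves with agar blocks of S. sclerotiorum grown on PDA. Kept humid at 20° C for 2 days; lesion proportion scored and control value calculated, in duplicate.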

[2] = test system: Blumeria graminis f. sp. tritici; assay: Test on the preventive effect against wheat powdery mildew; format: in vivo; conditions: 168 h, test solution A 500 ppm, 5 ml per pot, wheat 1.3-leaf stage, 7 days after inoculation
Outline: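 Compounds formulated as 20 wt % emulsifiable concentrates and diluted with water to 500 ppm; 5 ml per pot applied to wheat (Norin 61) at the 1.3-leaf stage. Conidia inoculated one day later in a 20° C greenhouse; lesion proportion scored after 7 days as control value, in duplicate.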

[3] = test system: Phaeosphaeria nodorum (Synonym: Septoria nodorum); assay: Test on the preventive effect against wheat glume blotch; format: in vivo; conditions: Parastagonospora nodorum, 144 h; test solution A 500 ppm, 5 ml per pot, wheat 1.3-leaf stage, 2 days inoculation chamber then 6 days at 20° C.
Outline: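 Wheat (cv. Haruyutaka) at 1.3-leaf stage sprayed with compound at 500 ppm as diluted emulsifiable concentrate, then inoculated one day later with conidial suspension. Kept 2 days at 20° C and 100% RH, then 6 days in a greenhouse at 20° C. Control value derived from lesion proportion on inoculated leaves; duplicate.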

Asperaillus niger = assay: Test on the antifungal activity against Asperaillus niger; format: cell-based; conditions: 48 h; test solution B 100 ppm, 10 μl per well, 96 well plate, 25° C. dark, 2 days after treatment; read-out: efficacy (flora area ratio relative to non-treated well)
Outline: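 Compounds at 100 ppm (diluted from DMSO stock in water) were added to potato dextrose 1% agar wells seeded with Aspergillus niger spores (10 spores/3 μl). Plates held at 25 °C in dark for 2 days. Efficacy (%) calculated from flora area ratio versus non-treated wells.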

[4] = test system: Barber pole worm (Haemonchus contortus); assay: Insecticidal test against Barber pole worm (eggs, 96 well plate); format: in vivo; conditions: 96 h, test solution B 100 ppm, 10 μl per well, 25° C. dark, 4 days after treatment, read-out: efficacy (unhatched eggs and inactive larvae relative to non-treated)
Outline: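 Haemonchus contortus eggs (about 10 per 3 μl) were placed on 1% potato dextrose agar in wells. Compound diluted from 1 wt % DMSO solutions to 100 ppm in water was added, and plates were held at 25° C. in the dark.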

`C=C(CNC(=O)c1cn(C)nc1C(F)F)c1ncc(C#CC2CC2)cc1Cl` [8-011, N-[2-[3-chloro-5-(cyclopropylethynyl)pyridin-2-yl]-2-propenyl]-3-difluoromethyl-1-methyl-1H-pyrazole-4-carboxamide] was tested, and the pest or weed control at 500 µg/mL [1] was ≥ 70%, the pest or weed control at 500 µg/mL (Sclerotinia sclerotiorum) was ≥ 70% and the pest or weed control at 500 µg/mL [2] was ≥ 70%. For the same compound, the pest or weed control at 500 µg/mL [3] was ≥ 70%, the inhibition of growth at 100 µg/mL (Asperaillus niger) was ≥ 50% and the pest or weed control at 100 µg/mL [4] was ≥ 50%.

For `COC(CNC(=O)c1cn(C)nc1C(F)F)c1ncc(C#CC2CC2)cc1Cl` (stereo not drawn) [8-019], the pest or weed control at 500 µg/mL [1] was ≥ 70%, the pest or weed control at 500 µg/mL (Sclerotinia sclerotiorum) was ≥ 70% and the pest or weed control at 500 µg/mL [2] was ≥ 70%. The pest or weed control at 500 µg/mL [3] was ≥ 70%, the inhibition of growth at 100 µg/mL (Asperaillus niger) was ≥ 50% and the pest or weed control at 100 µg/mL [4] was ≥ 50%.

For `COC(c1ncc(C#CC2CC2)cc1Cl)C(C)NC(=O)c1cn(C)nc1C(F)F` (stereo not drawn) [8-028, N-[2-[3-chloro-5-(cyclopropylethynyl)pyridin-2-yl]-2-methoxy-1-methylethyl]-3-difluoromethyl-1-methyl-1H-pyrazole-4-carboxamide], the pest or weed control at 500 µg/mL [1] was ≥ 70%, the pest or weed control at 500 µg/mL (Sclerotinia sclerotiorum) was ≥ 70% and the pest or weed control at 500 µg/mL [2] was ≥ 70%. For the same compound, the pest or weed control at 500 µg/mL [3] was ≥ 70%, the inhibition of growth at 100 µg/mL (Asperaillus niger) was ≥ 50% and the pest or weed control at 100 µg/mL [4] was ≥ 50%.

For `Cc1nc(C(F)F)c(C(=O)NCC(C)c2ncc(C#CC3CC3)cc2Cl)s1` (stereo not drawn) [9-002], the pest or weed control at 500 µg/mL [1] was ≥ 70%, the pest or weed control at 500 µg/mL (Sclerotinia sclerotiorum) was ≥ 70% and the pest or weed control at 500 µg/mL [2] was ≥ 70%. For the same compound, the pest or weed control at 500 µg/mL [3] was ≥ 70%, the inhibition of growth at 100 µg/mL (Asperaillus niger) was ≥ 50% and the pest or weed control at 100 µg/mL [4] was ≥ 50%.

With `COC(c1ncc(C#CC2CC2)cc1Cl)C(C)NC(=O)c1sc(C)nc1C(F)F` (stereo not drawn) [9-006a] the pest or weed control at 500 µg/mL [1] was ≥ 70%, the pest or weed control at 500 µg/mL (Sclerotinia sclerotiorum) was ≥ 70% and the pest or weed control at 500 µg/mL [2] was ≥ 70%. For the same compound, the pest or weed control at 500 µg/mL [3] was ≥ 70%, the inhibition of growth at 100 µg/mL (Asperaillus niger) was ≥ 50% and the pest or weed control at 100 µg/mL [4] was ≥ 50%.
